{"source": "patent US6670353B2", "about": "“Oxime-group containing oestrone sulphatase inhibitors” (Sterix Limited, priority 1997, dated 2003)", "key": {"[1]": {"conditions": "cited from earlier work"}, "[2]": {"target": "T1, Steroid sulphatase (Steryl Sulphatase EC 3.1.6.2) (Homo sapiens, UniProt P08842)", "T1 construct": "endogenous in cells; host or cells: MCF-7 human breast cancer cells", "T1 sequence (P08842 22-583)": "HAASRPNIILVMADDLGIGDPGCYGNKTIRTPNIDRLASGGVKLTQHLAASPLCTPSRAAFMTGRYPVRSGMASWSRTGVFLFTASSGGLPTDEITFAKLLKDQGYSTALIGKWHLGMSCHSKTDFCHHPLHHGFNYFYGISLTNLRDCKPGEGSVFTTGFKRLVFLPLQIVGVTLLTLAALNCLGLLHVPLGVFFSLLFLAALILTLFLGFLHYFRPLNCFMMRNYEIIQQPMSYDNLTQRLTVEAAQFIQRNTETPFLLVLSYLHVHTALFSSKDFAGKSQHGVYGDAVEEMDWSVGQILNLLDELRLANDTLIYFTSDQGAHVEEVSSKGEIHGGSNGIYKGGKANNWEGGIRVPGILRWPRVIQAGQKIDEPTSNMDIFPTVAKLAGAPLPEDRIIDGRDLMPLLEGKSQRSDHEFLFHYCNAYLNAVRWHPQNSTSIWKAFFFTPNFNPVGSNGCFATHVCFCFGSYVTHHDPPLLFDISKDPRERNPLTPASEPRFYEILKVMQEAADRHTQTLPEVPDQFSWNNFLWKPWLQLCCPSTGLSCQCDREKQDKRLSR", "assay": "Inhibition of steroid sulphatase activity in intact MCF-7 cells", "assay_type": "cell-based", "conditions": "MCF7, read-out: % INHIBITION (mean ± S.D., n = 3) MCF-7 cells", "procedure": "(§1) In the examples reference is made to steroid sulphatase inhibition. This is determined according to the teachings of PCT/GB92/01587 wherein the ability of compounds to inhibit oestrone sulphatase activity is assessed using either intact MCF-7 breast cancer cells or placental microsomes. For ease of reference, those teachings are repeated here as Example 1.\nSteroid sulphatase (Steroid sulphatase is defined as: Steryl Sulphatase EC 3.1.6.2.) activity was measured in vitro using intact MCF-7 human breast cancer cells. This hormone dependent cell line is widely used to study the control of human breast cancer cell growth. […] Cells were maintained in Minimal Essential Medium (MEM) (Flow Laboratories, Irvine, Scotland) containing 20 mM HEPES, 5% foetal bovine serum, 2 mM glutamine, non-essential amino acids and 0.075% sodium bicarbonate. Up to 30 replicate 25 cm^2 tissue culture flasks were seeded with approximately 1×10^5 cells/flask using the above medium. Cells were grown to 80% confluency and medium was changed every third day.\nIntact monolayers of MCF-7 cells in triplicate 25 cm^2 tissue culture flasks were washed with Earle's Balanced Salt Solution (EBSS from ICN Flow, High Wycombe, U.K.) and incubated for 3-4 hours at 37° C. with 5 pmol (7×10^5 dpm) [6,7-^3H]oestrone-3-sulphate (specific activity 60 Ci/mmol from New England Nuclear, Boston, Mass., U.S.A.) in serum-free MEM (2.5 ml) together with oestrone-3-sulphamate (11 concentrations: 0; 1 fM; 0.01 pM; 0.1 pM; 1 pM; 0.01 nM; 0.1 nM; 1 nM; 0.01 mM; 0.1 mM; 1 mM). […] A portion (2 ml) of the organic phase was removed, evaporated and the ^3H and ^14C content of the residue determined by scintillation spectrometry. The mass of oestrone-3-sulphate hydrolysed was calculated from the ^3H counts obtained (corrected for the volumes of the medium and organic phase used, and for recovery of [^14C]oestrone added) and the specific activity of the substrate. […] The number of cell nuclei per flask was determined using a Coulter Counter after treating the cell monolayers with Zaponin. […]"}, "[3]": {"target": "T2, Steroid sulphatase (oestrone sulphatase) (Homo sapiens, UniProt P08842)", "T2 construct": "Sulphatase-positive human placenta from normal term pregnancies; from tissue; host or cells: human term placenta (2000 g supernatant / microsomes)", "T2 sequence (P08842 22-583)": "T1 sequence (P08842 22-583)", "assay": "Inhibition of steroid sulphatase activity in placental microsomes", "assay_type": "biochemical", "conditions": "read-out: % INHIBITION (mean ± S.D., n = 3) PLACENTAL MICROSOMES", "procedure": "as §1\nSulphatase-positive human placenta from normal term pregnancies (Obstetric Ward, St. Mary's Hospital, London) were thoroughly minced with scissors and washed once with cold phosphate buffer (pH 7.4, 50 mM) then re-suspended in cold phosphate buffer (5 ml/g tissue). Homogenisation was accomplished with an Ultra-Turrax homogeniser, using three 10 second bursts separated by 2 minute cooling periods in ice. Nuclei and cell debris were removed by centrifuging (4° C.) at 2000 g for 30 minutes and portions (2 ml) of the supernatant were stored at −20° C. The protein concentration of the supernatants was determined by the method of Bradford (Anal. Biochem., 72, 248-254 (1976)).\nIncubations (1 ml) were carried out using a protein concentration of […], substrate concentration of […] [6,7-^3H]oestrone-3-sulphate (specific activity 60 Ci/mmol from New England Nuclear, Boston, Mass., U.S.A.) and an incubation time of 20 minutes at 37° C. Eight concentrations of the compounds to be tested may be employed: 0 (i.e. control); 0.05 mM; 0.1 mM; 0.2 mM; 0.4 mM; 0.6 mM; 0.8 mM; 1.0 mM. After incubation each sample was cooled and the medium (1 ml) was pipetted into separate tubes containing [^14C]oestrone (7×10^3 dpm) (specific activity 97 Ci/mmol from Amersham International Radiochemical Centre, Amersham, U.K.). The mixture was shaken thoroughly for 30 seconds with toluene (5 ml). […] A portion (2 ml) of the organic phase was removed, evaporated and the ^3H and ^14C content of the residue determined by scintillation spectrometry. The mass of oestrone-3-sulphate hydrolysed was calculated from the ^3H counts obtained (corrected for the volumes of the medium and organic phase used, and for recovery of [^14C]oestrone added) and the specific activity of the substrate."}, "Rat Liver Sulphatase": {"target": "T3, Rat Liver Sulphatase (Rattus norvegicus, UniProt P15589)", "T3 construct": "from tissue; host or cells: rat liver after oral dosing", "T3 sequence (P15589 20-577)": "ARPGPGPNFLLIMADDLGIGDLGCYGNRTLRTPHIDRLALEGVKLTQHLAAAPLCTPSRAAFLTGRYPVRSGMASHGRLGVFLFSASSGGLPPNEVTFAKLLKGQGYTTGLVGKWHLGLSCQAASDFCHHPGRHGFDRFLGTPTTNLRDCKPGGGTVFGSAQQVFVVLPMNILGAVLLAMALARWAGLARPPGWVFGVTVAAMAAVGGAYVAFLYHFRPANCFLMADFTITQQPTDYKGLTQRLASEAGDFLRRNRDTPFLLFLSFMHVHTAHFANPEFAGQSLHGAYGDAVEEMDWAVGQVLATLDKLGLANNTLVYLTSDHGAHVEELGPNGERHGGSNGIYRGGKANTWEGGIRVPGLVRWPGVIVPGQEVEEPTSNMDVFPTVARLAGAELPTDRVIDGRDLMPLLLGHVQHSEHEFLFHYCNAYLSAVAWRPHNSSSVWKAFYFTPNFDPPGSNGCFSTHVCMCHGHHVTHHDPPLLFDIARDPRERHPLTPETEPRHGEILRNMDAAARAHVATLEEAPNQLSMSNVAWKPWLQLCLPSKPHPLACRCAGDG", "assay": "In vivo inhibition (rat liver sulphatase)", "conditions": "2 mg/kg/d×5 ol, ORAL DOSE", "procedure": "In Vivo Inhibition (Rat Liver Sulphatase)\n99.2±0.42%. @ 2 mg/kg/d×5 ol, ORAL DOSE."}, "uterine growth": {"system": "uterine growth", "assay": "Measurement of estrogenic activity (uterine weight)", "assay_type": "in vivo", "conditions": "rats, oral, such as 0.1 mg/Kg/day for five days; uterine weight/whole body weight×100", "procedure": "Compounds according to the present invention such as Compound 2 (such as at levels of 0.1 mg/Kg/day for five days) are administered orally to rats with another group of animals receiving vehicle only (propylene glycol). At the end of the study uteri are obtained and weighed with the results being expressed as uterine weight/whole body weight×100."}, "[4]": {"target": "T1, Steroid sulphatase (Steryl Sulphatase EC 3.1.6.2)", "conditions": "0.1 μM; cited from earlier work"}, "rat liver E1-STS": {"target": "T4, rat liver E1-STS (Rattus norvegicus, UniProt P15589)", "T4 construct": "host or cells: rat liver (in vivo)", "T4 sequence (P15589 20-577)": "T3 sequence (P15589 20-577)", "conditions": "administered either orally or subcutaneously; cited from earlier work"}, "rat liver DHA-STS": {"target": "T5, rat liver DHA-STS (Rattus norvegicus, UniProt P15589)", "T5 construct": "host or cells: rat liver (in vivo)", "T5 sequence (P15589 20-577)": "T3 sequence (P15589 20-577)", "conditions": "administered either orally or subcutaneously; cited from earlier work"}, "memory": {"system": "memory", "conditions": "rats; cited from earlier work"}, "E1-STS enzyme": {"target": "T6, E1-STS enzyme (Homo sapiens, UniProt P08842)", "T6 sequence (P08842 22-583)": "T1 sequence (P08842 22-583)", "conditions": "cited from earlier work"}}, "data": [{"compound": "C[C@]12CC[C@@H]3c4ccc(OS(=O)(=O)O)cc4CC[C@H]3[C@@H]1CCC2=O", "note": "[Compound E1S, oestrone sulphate]", "values": [{"measurement": "half-life in blood", "setting": "[1]", "result": "10 to 12", "unit": "h"}]}, {"compound": "C[C@]12CCC3c4ccc(OS(N)(=O)=O)cc4CCC3C1CCC2=NO", "note": "(stereo partly shown) [Compound 2, Oestrone Oxime-3-O-sulphamate]", "values": [{"measurement": "inhibition at 0.1 µM", "setting": "[2]; inhibitor concentration 0.1 μM", "result": "96 ± 1.8", "unit": "%"}, {"measurement": "inhibition at 1 µM", "setting": "[2]; inhibitor concentration 1 μM", "result": "98 ± 0.6", "unit": "%"}, {"measurement": "inhibition at 10 µM", "setting": "[2]; inhibitor concentration 10 μM", "result": "99 ± 0.2", "unit": "%"}, {"measurement": "inhibition at 0.0001 µM", "setting": "[3]; inhibitor concentration 0.1 nM", "result": "2.9 ± 1.1", "unit": "%"}, {"measurement": "inhibition at 0.001 µM", "setting": "[3]; inhibitor concentration 1 nM", "result": "8 ± 3.3", "unit": "%"}, {"measurement": "inhibition at 0.01 µM", "setting": "[3]; inhibitor concentration 10 nM", "result": "19.3 ± 2.4", "unit": "%"}, {"measurement": "inhibition at 0.1 µM", "setting": "[3]; inhibitor concentration 0.1 μM", "result": "52.3 ± 0.1", "unit": "%"}, {"measurement": "inhibition at 1 µM", "setting": "[3]; inhibitor concentration 1 μM", "result": "89.8 ± 0.2", "unit": "%"}, {"measurement": "inhibition at 10 µM", "setting": "[3]; inhibitor concentration 10 μM", "result": "98.7 ± 0.1", "unit": "%"}, {"measurement": "In vivo inhibition (rat liver sulphatase)", "setting": "Rat Liver Sulphatase", "result": "99.2±0.42", "unit": "%"}, {"measurement": "Estrogenic activity: effect on uterine growth", "setting": "uterine growth", "result": "has an effect on uterine growth"}]}, {"compound": "CC12CCC3c4ccc(OS(N)(=O)=O)cc4CCC3C1CCC2=O", "note": "(stereo not shown) [EMATE, oestrone-3-sulphamate]", "values": [{"measurement": "inhibition of E1-STS activity in intact MCF-7 cells", "setting": "[4]", "result": "more than 99%"}, {"measurement": "inhibition of rat liver E1-STS activity", "setting": "rat liver E1-STS", "result": 99, "unit": "%"}, {"measurement": "inhibition of rat liver DHA-STS activity", "setting": "rat liver DHA-STS", "result": 99, "unit": "%"}, {"measurement": "memory enhancing effect", "setting": "memory", "result": "memory enhancing effect"}, {"measurement": "mode of inhibition of the E1-STS enzyme", "setting": "E1-STS enzyme", "result": "time- and concentration-dependent manner"}]}, {"compound": "oestrone-3-S-sulphamate", "values": [{"measurement": "mode of inhibition of the E1-STS enzyme", "setting": "E1-STS enzyme", "result": "weaker non-time-dependent inactivators"}]}, {"compound": "oestrone-3-N-sulphamate", "values": [{"measurement": "mode of inhibition of the E1-STS enzyme", "setting": "E1-STS enzyme", "result": "weaker non-time-dependent inactivators"}]}]}
